In brackets after ≈: the same amount, converted by molar mass. Numbered stars: 1 amine (or outer) side, 2 acyl side, 3 side chain; on linkers, the order of the positions; unused ones are H or OH. Square brackets hold non-standard residues; d marks the D form. Peptide text beside a SMILES is read from it. * marks the point of attachment. boroAla((+)-pinanediol) = C[C@H](N*)B1O[C@@H]2C[C@@H]3C[C@@H](C3(C)C)[C@]2(C)O1; X7 = CC1(C)[C@@H]2C[C@H]3OB([C@@H]4CCCN4*)O[C@@]3(C)[C@H]1C2; Biphenylcarbonyl(4'-Bu) = CCCCc1ccc(-c2ccc(C(=O)*)cc2)cc1; X1 = C[C@H](N*)B1OC2C[C@@H]3C[C@@H](C3(C)C)[C@]2(C)O1; Benzoyl(4-(4-Cl-Ph)) = O=C(c1ccc(-c2ccc(Cl)cc2)cc1)*; X10 = CCCCc1ccc(-c2ccc(N*)cc2)cc1; NMeT = CN[C@H](C(=O)O)[C@@H](C)O; Decanoyl = CCCCCCCCCC(=O)*; boroAla = C[C@H](N*)B(O)O; Dap = NC[C@H](N)C(=O)O; CO = O=C([*:1])[*:2]; βAla = NCCC(=O)O
Experiments:
S. aureus SPase = S. aureus SPase (Staphylococcus aureus, UniProt P0A070); assay: biochemical
Chain of S. aureus SPase (P0A070 whole entry): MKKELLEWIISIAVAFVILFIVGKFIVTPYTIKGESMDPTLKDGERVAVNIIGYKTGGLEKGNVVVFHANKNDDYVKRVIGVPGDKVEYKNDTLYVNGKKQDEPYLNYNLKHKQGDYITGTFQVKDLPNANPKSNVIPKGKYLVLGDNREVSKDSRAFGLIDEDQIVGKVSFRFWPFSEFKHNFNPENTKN

E. coli SPase = E. coli SPase (Escherichia coli, UniProt P00803); assay: Biochemical SPase activity assay (fluorogenic peptide substrate), E. coli enzyme
Chain of E. coli SPase (P00803 whole entry): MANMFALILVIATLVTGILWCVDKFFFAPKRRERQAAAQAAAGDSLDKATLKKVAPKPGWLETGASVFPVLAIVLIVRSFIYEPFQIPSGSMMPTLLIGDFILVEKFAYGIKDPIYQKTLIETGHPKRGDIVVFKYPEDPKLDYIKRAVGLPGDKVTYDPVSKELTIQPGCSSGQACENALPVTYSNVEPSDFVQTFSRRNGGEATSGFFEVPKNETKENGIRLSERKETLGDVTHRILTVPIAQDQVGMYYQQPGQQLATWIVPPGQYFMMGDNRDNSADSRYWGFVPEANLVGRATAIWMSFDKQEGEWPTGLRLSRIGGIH

[1] = test system: Escherichia coli strain MC4100 IMP-4213, which harbors an LptD mutation; conditions: Method B; E. coli MC4100 IMP-4213 (LptD mutation); 35° C., 22 hours
Method in brief: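 Two-fold serial dilutions of compound inoculated at final OD600 0.0005, incubated static at 35 °C for 22 h, and growth read visually.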

[2] = test system: methicillin resistant Staphylococcus aureus (MRSA) strain USA300 (NRS384); conditions: Method B, 35° C., 22 hours

SMILES | IC50 (S. aureus SPase) [nM] | IC50 (E. coli SPase) [nM] | MIC (μg/mL) E. coli [1] [µg/mL] | MIC (μg/mL) S. aureus [2] [µg/mL]
CCCCc1ccc(-c2ccc(C(=O)NCCC(=O)N[C@@H](CCCCN)C(=O)N[C@H](C(=O)N[C@@H](C)C(=O)N[C@@H](CC(N)=O)C(=O)N3CCC[C@H]3B3O[C@@H]4C[C@@H]5C[C@@H](C5(C)C)[C@]4(C)O3)[C@@H](C)O)cc2)cc1 [Compound 200] ({Biphenylcarbonyl(4'-Bu)-βAla}-KTAN-X7) | 1200 | 5200 | 64 (≈ 65.9 µM) | >64
CCCCc1ccc(-c2ccc(C(=O)NCCC(=O)N[C@@H](CCCCN)C(=O)N3CCC[C@H]3C(=O)N[C@@H](C)C(=O)N[C@@H](CCCCN)C(=O)N[C@@H](C)B(O)O)cc2)cc1 [Compound 221] ({Biphenylcarbonyl(4'-Bu)-βAla}-KPAK-boroAla) | 130 | 62 | 8 (≈ 9.75 µM) | 1 (≈ 1.22 µM)
CCCCc1ccc(-c2cnc(C(=O)N[C@@H](CCN)C(=O)N[C@H](C(=O)N[C@@H](C)C(=O)N[C@@H](CCCCN)C(=O)N[C@@H](C)B3OC4C[C@@H]5C[C@@H](C5(C)C)[C@]4(C)O3)[C@@H](C)O)nc2)cc1 (some centres unmarked) [Compound 242] | 54 | 21 | 11 (≈ 12.8 µM) | 1.4 (≈ 1.62 µM)
CCCCc1ccc(-c2ccc(C(=O)N[C@@H](CCCCN)C(=O)N3CCC[C@H]3C(=O)N[C@@H](C)C(=O)N[C@@H](CC(N)=O)C(=O)N[C@@H](C)B(O)O)cc2)cc1 [Compound 158] ({Biphenylcarbonyl(4'-Bu)}-KPAN-boroAla) | 400 | 33 | 5 (≈ 6.8 µM) | 5.7 (≈ 7.75 µM)
CCCCc1ccc(-c2ccc(C(=O)NCCC(=O)N[C@@H](CCCCN)C(=O)N(C)[C@H](C(=O)N[C@@H](C)C(=O)N[C@@H](CC(N)=O)C(=O)N[C@@H](C)B3OC4C[C@@H]5C[C@@H](C5(C)C)[C@]4(C)O3)[C@@H](C)O)cc2)cc1 (some centres unmarked) [Compound 192] ({Biphenylcarbonyl(4'-Bu)-βAla}-K[NMeT]AN-X1) | 12 | 27 | 16 (≈ 16.7 µM) | 0.59 (≈ 0.615 µM)
CCCCc1ccc(-c2ccc(C(=O)N[C@@H](CCCCN)C(=O)N[C@@H](CCC(=O)O)C(=O)N[C@@H](C)C(=O)N[C@@H](CCCCN)C(=O)N[C@@H](C)B3O[C@@H]4C[C@@H]5C[C@@H](C5(C)C)[C@]4(C)O3)cc2)cc1 [Compound 151] ({Biphenylcarbonyl(4'-Bu)}-KEAK-{boroAla((+)-pinanediol)}) | 38 | 8.8 | 1.2 (≈ 1.31 µM) | 0.71 (≈ 0.775 µM)
C[C@H](NC(=O)[C@H](CCCCN)NC(=O)[C@H](C)NC(=O)[C@@H](NC(=O)[C@H](CCN)NC(=O)c1ccc(-c2ccccc2C(F)(F)F)cc1)[C@@H](C)O)B1OC2C[C@@H]3C[C@@H](C3(C)C)[C@]2(C)O1 (some centres unmarked) [Compound 236] | 130 | 28 | 8 (≈ 9.18 µM) | 2 (≈ 2.29 µM)
CCCCc1ccc(-c2ccc(CNCC[C@H](NC(C)=O)C(=O)N[C@H](C(=O)N[C@@H](C)C(=O)N[C@@H](CCCCN)C(=O)N[C@@H](C)B3OC4C[C@@H]5C[C@@H](C5(C)C)[C@]4(C)O3)[C@@H](C)O)cc2)cc1 (some centres unmarked) [Compound 277] | 110 | 680 | 32 (≈ 36 µM) | 0.5 (≈ 0.563 µM)
CCCCc1ccc(-c2ccc(NC(=O)N[C@@H](CCCCN)C(=O)N[C@H](C(=O)N[C@@H](C)C(=O)N[C@@H](CC(N)=O)C(=O)N[C@@H](C)B3OC4C[C@@H]5C[C@@H](C5(C)C)[C@]4(C)O3)[C@@H](C)O)cc2)cc1 (some centres unmarked) [Compound 263] ({X10-CO}-KTAN-X1) | 72 | 88 | 2 (≈ 2.25 µM) | 0.71 (≈ 0.799 µM)
CCCCCCCCCC(=O)NCCC(=O)N[C@@H](CCCCN)C(=O)N[C@H](C(=O)N[C@@H](C)C(=O)N[C@@H](CC(N)=O)C(=O)N[C@@H](C)B1OC2C[C@@H]3C[C@@H](C3(C)C)[C@]2(C)O1)[C@@H](C)O (some centres unmarked) [Compound 199] ({Decanoyl-βAla}-KTAN-X1) | 1.4 | 4.5 | >64 | 7 (≈ 8.11 µM)
CC(C)C[C@H](NC(=O)[C@H](C)NC(=O)[C@H](CN)NC(=O)[C@H](CN)NC(=O)c1ccc(-c2ccc(Cl)cc2)cc1)C(=O)N[C@@H](C)B1O[C@@H]2C[C@@H]3C[C@@H](C3(C)C)[C@]2(C)O1 [Compound 172] ({Benzoyl(4-(4-Cl-Ph))}-[Dap][Dap]AL-{boroAla((+)-pinanediol)}) | 750 | 20 | 8 (≈ 10.1 µM) | 8 (≈ 10.1 µM)
